Series [1] in a line: Solubility test at 10 mg/mL (visual inspection and light scattering). Type of series: physicochemical. The conditions noted are these: for Solubility, Condition 1 Acetate pH 4: 10 mg/mL compound in 100 mM acetate pH 4; for Solubility, Condition 2 Acetate pH 5: 10 mg/mL compound in 100 mM acetate pH 5; for Solubility, Condition 3 Phosphate pH 6: 10 mg/mL compound in 100 mM phosphate pH 6; for Solubility, Condition 4 Phosphate pH 7: 10 mg/mL compound in 100 mM phosphate pH 7; for Solubility, Condition 5 Phosphate pH 7.5: 10 mg/mL compound in 100 mM phosphate pH 7.5.

In series [2] the test system is classical complement pathway. The series is described as follows: In vitro haemolysis assay (inhibition of classical complement pathway). Type of series: cell-based, human. The method in brief: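 Serially diluted compound (9 points) was preincubated 15 min at room temperature with diluted human serum, titrated per batch to give 70-90% maximal haemolysis, in Tris/casein buffer pH 7.4 with Mg2+/Ca2+. Antibody-sensitized sheep erythrocytes were then added for 30 min at 37° C, and the reaction was stopped with EDTA. Haemolysis was read at A405, with IC50 from 4PL fit.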

In a further series the target is Human C3 (human, UniProt P01024 23-1663). Put plainly: cell-based or functional assay.
Sequence of Human C3 (P01024 23-1663 limits assumed): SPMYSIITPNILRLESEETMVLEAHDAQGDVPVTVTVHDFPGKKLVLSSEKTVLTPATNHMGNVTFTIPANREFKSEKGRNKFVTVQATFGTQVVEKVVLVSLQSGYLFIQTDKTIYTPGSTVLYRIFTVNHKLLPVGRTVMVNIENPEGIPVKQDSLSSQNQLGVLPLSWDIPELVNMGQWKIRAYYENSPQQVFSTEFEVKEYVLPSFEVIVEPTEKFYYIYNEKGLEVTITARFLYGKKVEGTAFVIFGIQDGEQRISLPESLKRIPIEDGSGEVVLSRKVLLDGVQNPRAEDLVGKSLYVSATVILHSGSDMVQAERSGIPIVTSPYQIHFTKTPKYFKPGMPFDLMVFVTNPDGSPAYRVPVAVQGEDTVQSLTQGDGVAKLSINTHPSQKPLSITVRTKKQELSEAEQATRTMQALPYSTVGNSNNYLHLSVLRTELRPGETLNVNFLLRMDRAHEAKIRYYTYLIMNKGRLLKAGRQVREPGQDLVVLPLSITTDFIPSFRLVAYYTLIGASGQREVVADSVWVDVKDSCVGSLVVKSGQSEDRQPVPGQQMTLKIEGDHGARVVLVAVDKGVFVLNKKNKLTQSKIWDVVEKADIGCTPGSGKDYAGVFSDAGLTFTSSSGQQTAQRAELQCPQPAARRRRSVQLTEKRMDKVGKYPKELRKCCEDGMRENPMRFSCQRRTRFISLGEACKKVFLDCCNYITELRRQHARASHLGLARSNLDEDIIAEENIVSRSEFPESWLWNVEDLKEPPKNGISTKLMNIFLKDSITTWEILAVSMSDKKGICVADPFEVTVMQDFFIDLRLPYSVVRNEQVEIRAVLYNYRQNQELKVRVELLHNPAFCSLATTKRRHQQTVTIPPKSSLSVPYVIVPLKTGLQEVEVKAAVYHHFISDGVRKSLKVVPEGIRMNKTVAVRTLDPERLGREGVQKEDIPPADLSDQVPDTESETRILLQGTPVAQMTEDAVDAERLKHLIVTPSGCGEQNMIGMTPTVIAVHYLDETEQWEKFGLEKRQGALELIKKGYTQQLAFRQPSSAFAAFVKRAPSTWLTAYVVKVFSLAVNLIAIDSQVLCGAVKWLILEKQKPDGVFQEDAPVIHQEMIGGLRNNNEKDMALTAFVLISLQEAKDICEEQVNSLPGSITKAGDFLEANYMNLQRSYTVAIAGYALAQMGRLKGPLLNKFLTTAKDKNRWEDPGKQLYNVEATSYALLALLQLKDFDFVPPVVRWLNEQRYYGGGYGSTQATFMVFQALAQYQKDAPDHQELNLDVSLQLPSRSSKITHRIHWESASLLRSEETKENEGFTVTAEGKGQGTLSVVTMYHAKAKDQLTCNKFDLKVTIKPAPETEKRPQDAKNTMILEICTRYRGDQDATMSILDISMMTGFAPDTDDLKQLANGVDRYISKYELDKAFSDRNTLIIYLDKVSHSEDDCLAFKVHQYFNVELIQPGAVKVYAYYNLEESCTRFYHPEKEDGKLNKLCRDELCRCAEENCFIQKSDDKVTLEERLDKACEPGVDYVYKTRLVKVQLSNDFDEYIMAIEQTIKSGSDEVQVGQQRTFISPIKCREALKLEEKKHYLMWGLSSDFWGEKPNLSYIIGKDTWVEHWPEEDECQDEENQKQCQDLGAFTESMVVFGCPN
Setting [3] is: Table 3, human serum, sensitized sheep red blood cells, read-out: IC50[nM], in vitro analysis of inhibition of hemolysis.

Like-named read-outs stand apart in the source and are kept apart here. Starred links: 1 amine or outer side, 2 acyl side, 3 side chain; linkers in the order of their positions; H or OH if unused. Positions of bridges follow the written chain, without caps; N, C: chain ends. Non-standard residues stand in square brackets, D forms with d. Residues, ends and D or L forms follow the SMILES beside them. Groups on a side chain read outwards from the residue. *: point of attachment. Trp(1-Me) = Cn1cc(C[C@H](N)C(=O)O)c2ccccc21; C18 diacid = O=C(O)CCCCCCCCCCCCCCCCC(=O)*; C16 diacid = O=C(O)CCCCCCCCCCCCCCC(=O)*; γGlu = O=C(O)[C@H](CCC(=O)[*:2])N[*:1]; 1Nal = N[C@@H](Cc1cccc2ccccc12)C(=O)O; AEEA = NCCOCCOCC(=O)O; Sar = CNCC(=O)O Bounds are passed on as bounds.

For `CC[C@H](C)[C@@H]1NC(=O)[C@@H](NC(=O)[C@H](Cc2ccccc2)NC(C)=O)CSSC[C@@H](C(=O)N[C@H](C(=O)NCC(=O)N[C@@H](C)C(=O)N[C@@H](CCC(=O)O)C(=O)N[C@@H](CO)C(N)=O)[C@@H](C)O)NC(=O)[C@H](CCCNC(=N)N)NC(=O)[C@H](Cc2c[nH]cn2)NC(=O)[C@H](CCC(=O)O)NC(=O)CN(C)C(=O)[C@H](Cc2c[nH]c3ccccc23)NC(=O)[C@H](CC(=O)O)NC(=O)[C@H](CCC(N)=O)NC(=O)[C@H](Cc2cn(C)c3ccccc23)NC1=O` [Compound 72, Ac-FC(1)I[1-Me-Trp]QDW[Sar]EHRC(1)TGAES-NH2] (Ac-FCI[Trp(1-Me)]QDW[Sar]EHRCTGAES-NH2; disulfide 2-12), in series [1], the “Solubility, Condition 1 Acetate pH 4” value is on record as “− (denotes lack of solubility at the given condition, as UV absorbance at 340 nm exceeds 0.1 AU and/or it is visibly turbid or contains particles.)”; the “Solubility, Condition 2 Acetate pH 5” value was “− (denotes lack of solubility at the given condition, as UV absorbance at 340 nm exceeds 0.1 AU and/or it is visibly turbid or contains particles.)”; the “Solubility, Condition 3 Phosphate pH 6” value was “+ (denotes solubility at the given condition, as determined by UV absorbance being less than 0.1 AU at 340 nm and the sample being clear when manually inspected.)”; the “Solubility, Condition 4 Phosphate pH 7” value is “+ (denotes solubility at the given condition, as determined by UV absorbance being less than 0.1 AU at 340 nm and the sample being clear when manually inspected.)”. The “Solubility, Condition 5 Phosphate pH 7.5” value in series [1] is “+ (denotes solubility at the given condition, as determined by UV absorbance being less than 0.1 AU at 340 nm and the sample being clear when manually inspected.)”. Also, the half-maximal inhibitory concentration (IC50) in series [2] (setting [3]) was less than 100 nM.
On to `CC[C@H](C)[C@H](NC(=O)[C@H](C)NC(=O)[C@H](CO)NC(=O)CNC(C)=O)C(=O)N[C@H]1CSSC[C@@H](C(=O)N(C)CC(=O)N[C@@H](CCC(=O)O)C(N)=O)NC(=O)[C@H](CCCNC(=N)N)NC(=O)[C@H](Cc2c[nH]cn2)NC(=O)[C@H](CCC(=O)O)NC(=O)CNC(=O)[C@H](Cc2c[nH]c3ccccc23)NC(=O)[C@H](CC(=O)O)NC(=O)[C@H](CCC(N)=O)NC(=O)[C@H](Cc2c[nH]c3ccccc23)NC(=O)[C@H]([C@@H](C)CC)NC1=O` [Compound 40] (Ac-GSAICIWQDWGEHRC[Sar]E-NH2; disulfide 5-15), for which, in series [1], the “Solubility, Condition 1 Acetate pH 4” value was “− (denotes lack of solubility at the given condition, as UV absorbance at 340 nm exceeds 0.1 AU and/or it is visibly turbid or contains particles.)”; the “Solubility, Condition 2 Acetate pH 5” value was “− (denotes lack of solubility at the given condition, as UV absorbance at 340 nm exceeds 0.1 AU and/or it is visibly turbid or contains particles.)”; the “Solubility, Condition 3 Phosphate pH 6” value was “+ (denotes solubility at the given condition, as determined by UV absorbance being less than 0.1 AU at 340 nm and the sample being clear when manually inspected.)”; the “Solubility, Condition 4 Phosphate pH 7” value was “+ (denotes solubility at the given condition, as determined by UV absorbance being less than 0.1 AU at 340 nm and the sample being clear when manually inspected.)”. Also, the “Solubility, Condition 5 Phosphate pH 7.5” value in series [1] was “+ (denotes solubility at the given condition, as determined by UV absorbance being less than 0.1 AU at 340 nm and the sample being clear when manually inspected.)”. In addition, the IC50 in series [2] (setting [3]) was less than 250 nM.
Take `CC[C@H](C)[C@@H]1NC(=O)[C@@H](NC(=O)[C@H](Cc2ccccc2)NC(=O)[C@H](C)NC(=O)[C@H](CO)NC(=O)CNC(=O)[C@H](CCC(=O)O)NC(C)=O)CSSC[C@@H](C(=O)N[C@H](C(=O)N[C@@H](CCC(=O)O)C(N)=O)[C@@H](C)O)NC(=O)[C@H](CCCNC(=N)N)NC(=O)[C@H](Cc2c[nH]cn2)NC(=O)[C@H](CCC(=O)O)NC(=O)CNC(=O)[C@H](Cc2c[nH]c3ccccc23)NC(=O)[C@H](CC(=O)O)NC(=O)[C@H](CCC(N)=O)NC(=O)[C@H](Cc2cccc3ccccc23)NC1=O` [Compound 56] (Ac-EGSAFCI[1Nal]QDWGEHRCTE-NH2; disulfide 6-16): in series [1], the “Solubility, Condition 1 Acetate pH 4” value is reported as “− (denotes lack of solubility at the given condition, as UV absorbance at 340 nm exceeds 0.1 AU and/or it is visibly turbid or contains particles.)”; the “Solubility, Condition 2 Acetate pH 5” value is reported as “− (denotes lack of solubility at the given condition, as UV absorbance at 340 nm exceeds 0.1 AU and/or it is visibly turbid or contains particles.)”; the “Solubility, Condition 3 Phosphate pH 6” value was “+ (denotes solubility at the given condition, as determined by UV absorbance being less than 0.1 AU at 340 nm and the sample being clear when manually inspected.)”; the “Solubility, Condition 4 Phosphate pH 7” value was “+ (denotes solubility at the given condition, as determined by UV absorbance being less than 0.1 AU at 340 nm and the sample being clear when manually inspected.)”. Also, the “Solubility, Condition 5 Phosphate pH 7.5” value in series [1] was “+ (denotes solubility at the given condition, as determined by UV absorbance being less than 0.1 AU at 340 nm and the sample being clear when manually inspected.)”. Also, the IC50 in series [2] (setting [3]) was less than 100 nM.
Regarding `CC[C@H](C)[C@H](NC(=O)[C@H](C)NC(=O)[C@H](CO)NC(=O)CNC(=O)[C@H](CCC(=O)O)NC(C)=O)C(=O)N[C@H]1CSSC[C@@H](C(=O)N(C)CC(=O)N[C@@H](CCC(=O)O)C(N)=O)NC(=O)[C@H](CCCNC(=N)N)NC(=O)[C@H](Cc2c[nH]cn2)NC(=O)[C@H](CCC(=O)O)NC(=O)CNC(=O)[C@H](Cc2c[nH]c3ccccc23)NC(=O)[C@H](CC(=O)O)NC(=O)[C@H](CCC(N)=O)NC(=O)[C@H](Cc2c[nH]c3ccccc23)NC(=O)[C@H]([C@@H](C)CC)NC1=O` [Compound 28] (Ac-EGSAICIWQDWGEHRC[Sar]E-NH2; disulfide 6-16), in series [1], the “Solubility, Condition 1 Acetate pH 4” value was “+ (denotes solubility at the given condition, as determined by UV absorbance being less than 0.1 AU at 340 nm and the sample being clear when manually inspected.)”; the “Solubility, Condition 2 Acetate pH 5” value is “+ (denotes solubility at the given condition, as determined by UV absorbance being less than 0.1 AU at 340 nm and the sample being clear when manually inspected.)”; the “Solubility, Condition 3 Phosphate pH 6” value is “+ (denotes solubility at the given condition, as determined by UV absorbance being less than 0.1 AU at 340 nm and the sample being clear when manually inspected.)”; the “Solubility, Condition 4 Phosphate pH 7” value was “+ (denotes solubility at the given condition, as determined by UV absorbance being less than 0.1 AU at 340 nm and the sample being clear when manually inspected.)”. Besides, in series [1], the “Solubility, Condition 5 Phosphate pH 7.5” value is “+ (denotes solubility at the given condition, as determined by UV absorbance being less than 0.1 AU at 340 nm and the sample being clear when manually inspected.)”. Further, the IC50 in series [2] (setting [3]) was less than 100 nM. Further, in series [2] (Table 4, valine 3 versus isoleucine 3 pairs, read-out: CP hemolysis IC50), the IC50 is 88 nM.

B1: Compound 94 (peptide)
peptide: Ac-ICIWQDWGEHRCTEGEK([AEEA-AEEA-γGlu-C16 diacid])-NH2
modifications: disulfide 2-12
SMILES: CC[C@H](C)[C@H](NC(C)=O)C(=O)N[C@H]1CSSC[C@@H](C(=O)N[C@H](C(=O)N[C@@H](CCC(=O)O)C(=O)NCC(=O)N[C@@H](CCC(=O)O)C(=O)N[C@@H](CCCCNC(=O)COCCOCCNC(=O)COCCOCCNC(=O)CC[C@H](NC(=O)CCCCCCCCCCCCCCC(=O)O)C(=O)O)C(N)=O)[C@@H](C)O)NC(=O)[C@H](CCCNC(=N)N)NC(=O)[C@H](Cc2c[nH]cn2)NC(=O)[C@H](CCC(=O)O)NC(=O)CNC(=O)[C@H](Cc2c[nH]c3ccccc23)NC(=O)[C@H](CC(=O)O)NC(=O)[C@H](CCC(N)=O)NC(=O)[C@H](Cc2c[nH]c3ccccc23)NC(=O)[C@H]([C@@H](C)CC)NC1=O
On to B1, for which the “IC50[nM], inhibition of hemolysis” value with Human C3 is less than 500 nM.

B2: Compound 4 (peptide)
peptide: Ac-ICI[Trp(1-Me)]QDWGEHRCT-NH2
modifications: disulfide 2-12
SMILES: CC[C@H](C)[C@H](NC(C)=O)C(=O)N[C@H]1CSSC[C@@H](C(=O)N[C@H](C(N)=O)[C@@H](C)O)NC(=O)[C@H](CCCNC(=N)N)NC(=O)[C@H](Cc2c[nH]cn2)NC(=O)[C@H](CCC(=O)O)NC(=O)CNC(=O)[C@H](Cc2c[nH]c3ccccc23)NC(=O)[C@H](CC(=O)O)NC(=O)[C@H](CCC(N)=O)NC(=O)[C@H](Cc2cn(C)c3ccccc23)NC(=O)[C@H]([C@@H](C)CC)NC1=O
Take B2: the “IC50[nM], inhibition of hemolysis” value with Human C3 was less than 100 nM.

B3: Compound 95 (peptide)
peptide: ICIWQDWGEHRCTEGK
modifications: N-acetyl; C-terminal amide; disulfide C2-C12; K16 side chain bears (15-carboxy-pentadecanoyl)-[(Piperazine-1-yl)-acetyl][Peg3][Peg3]
Take B3: the “IC50[nM], inhibition of hemolysis” value with Human C3 was less than 500 nM.

B4: Compound 96 (peptide)
peptide: Ac-ICIWQDWGEHRCTEGK([AEEA-AEEA-γGlu-C18 diacid])-NH2
modifications: disulfide 2-12
SMILES: CC[C@H](C)[C@H](NC(C)=O)C(=O)N[C@H]1CSSC[C@@H](C(=O)N[C@H](C(=O)N[C@@H](CCC(=O)O)C(=O)NCC(=O)N[C@@H](CCCCNC(=O)COCCOCCNC(=O)COCCOCCNC(=O)CC[C@H](NC(=O)CCCCCCCCCCCCCCCCC(=O)O)C(=O)O)C(N)=O)[C@@H](C)O)NC(=O)[C@H](CCCNC(=N)N)NC(=O)[C@H](Cc2c[nH]cn2)NC(=O)[C@H](CCC(=O)O)NC(=O)CNC(=O)[C@H](Cc2c[nH]c3ccccc23)NC(=O)[C@H](CC(=O)O)NC(=O)[C@H](CCC(N)=O)NC(=O)[C@H](Cc2c[nH]c3ccccc23)NC(=O)[C@H]([C@@H](C)CC)NC1=O
Regarding B4, the “IC50[nM], inhibition of hemolysis” value with Human C3 was less than 1000 nM.

By IC50 is commonly meant the point on the concentration scale where inhibition reaches its midpoint.

These data come from US20220306695A1, “COMPSTATIN ANALOGUES AND THEIR MEDICAL USES” (priority 2019, published 2022).
